Measurements as given in publication PMC11899342, “Novel Triazeneindole Antibiotics: Synthesis and Hit-to-Lead Optimization” (International Journal of Molecular Sciences, 2025).

Test system: MRSA clinical isolates
Experiment: Antibiotic susceptibility profile of MRSA clinical isolates (EUCAST breakpoints)
Format: cell-based, Staphylococcus aureus
From the text: Clinical MRSA isolates with multidrug resistance were obtained from the collection of the Research Institute of Antimicrobial Chemotherapy, Smolensk State Medical Academy.

With `CNC(C)C1CCC(N)C(OC2C(N)CC(N)C(OC3OCC(C)(O)C(NC)C3O)C2O)O1` (stereo not drawn) [GEN, gentamicin] the Drug sensibility profile (MRSA strain 1) was “S”, the Drug sensibility profile (MRSA strain 2) was “R” and the Drug sensibility profile (MRSA strain 3) was “R”. For the same compound, the Drug sensibility profile (MRSA strain 4) was “R”, the Drug sensibility profile (MRSA strain 5) was “R” and the Drug sensibility profile (MRSA strain 6) was “S”. The Drug sensibility profile (MRSA strain 7) was “R”, the Drug sensibility profile (MRSA strain 8) was “R” and the Drug sensibility profile (MRSA strain 9) was “R”. The Drug sensibility profile (MRSA strain 10) was “S”, the Drug sensibility profile (MRSA strain 12) was “S” and the Drug sensibility profile (MRSA strain 13) was “R”. The Drug sensibility profile (MRSA strain 14) was “R”, the Drug sensibility profile (MRSA strain 15) was “S” and the Drug sensibility profile (MRSA strain 16) was “R”. The Drug sensibility profile (MRSA strain 17) was “R”, the Drug sensibility profile (MRSA strain 18) was “R” and the Drug sensibility profile (MRSA strain 21) was “S”. The Drug sensibility profile (MRSA strain 23) was “R”, the Drug sensibility profile (MRSA strain 24) was “R” and the Drug sensibility profile (MRSA strain 25) was “R”. The Drug sensibility profile (MRSA strain 26) was “S S S S S S S”, the Drug sensibility profile (MRSA strain 27) was “R” and the Drug sensibility profile (MRSA strain 28) was “R”. For the same compound, the Drug sensibility profile (MRSA strain 29) was “S”, the Drug sensibility profile (MRSA strain 30) was “S” and the Drug sensibility profile (MRSA strain 31) was “R”. The Drug sensibility profile (MRSA strain 34) was “R”, the Drug sensibility profile (MRSA strain 35) was “R” and the Drug sensibility profile (MRSA strain 36) was “S S S S S S S”. The Drug sensibility profile (MRSA strain 40) was “R”, the Drug sensibility profile (MRSA strain 41) was “R” and the Drug sensibility profile (MRSA strain 42) was “R”. For the same compound, the Drug sensibility profile (MRSA strain 43) was “R”, the Drug sensibility profile (MRSA strain 44) was “R” and the Drug sensibility profile (MRSA strain 45) was “R”. For the same compound, the Drug sensibility profile (MRSA strain 46) was “S”, the Drug sensibility profile (MRSA strain 48) was “R” and the Drug sensibility profile (MRSA strain 49) was “S”. For the same compound, the Drug sensibility profile (MRSA strain 50) was “R” and the Drug sensibility profile (MRSA strain 51) was “R”.

For `CO/N=C(\C(=O)N[C@@H]1C(=O)N2C(C(=O)O)=C(COC(C)=O)CS[C@H]12)c1csc(N)n1` [CEF, cefotaxime], the Drug sensibility profile (MRSA strain 1) was “S”, the Drug sensibility profile (MRSA strain 2) was “S” and the Drug sensibility profile (MRSA strain 3) was “S”. For the same compound, the Drug sensibility profile (MRSA strain 4) was “S”, the Drug sensibility profile (MRSA strain 5) was “S” and the Drug sensibility profile (MRSA strain 6) was “R”. For the same compound, the Drug sensibility profile (MRSA strain 7) was “S”, the Drug sensibility profile (MRSA strain 8) was “R” and the Drug sensibility profile (MRSA strain 9) was “S”. For the same compound, the Drug sensibility profile (MRSA strain 10) was “S”, the Drug sensibility profile (MRSA strain 12) was “S” and the Drug sensibility profile (MRSA strain 13) was “R”. The Drug sensibility profile (MRSA strain 14) was “S”, the Drug sensibility profile (MRSA strain 15) was “S” and the Drug sensibility profile (MRSA strain 16) was “S”. The Drug sensibility profile (MRSA strain 17) was “S”, the Drug sensibility profile (MRSA strain 18) was “S” and the Drug sensibility profile (MRSA strain 21) was “R”. The Drug sensibility profile (MRSA strain 23) was “S”, the Drug sensibility profile (MRSA strain 24) was “S” and the Drug sensibility profile (MRSA strain 25) was “S”. The Drug sensibility profile (MRSA strain 26) was “S S S S S S S”, the Drug sensibility profile (MRSA strain 27) was “R” and the Drug sensibility profile (MRSA strain 28) was “S”. For the same compound, the Drug sensibility profile (MRSA strain 29) was “S”, the Drug sensibility profile (MRSA strain 30) was “S” and the Drug sensibility profile (MRSA strain 31) was “R”. The Drug sensibility profile (MRSA strain 34) was “R”, the Drug sensibility profile (MRSA strain 35) was “R” and the Drug sensibility profile (MRSA strain 36) was “S S S S S S S”. For the same compound, the Drug sensibility profile (MRSA strain 40) was “S”, the Drug sensibility profile (MRSA strain 41) was “R” and the Drug sensibility profile (MRSA strain 42) was “S”. The Drug sensibility profile (MRSA strain 43) was “S”, the Drug sensibility profile (MRSA strain 44) was “R” and the Drug sensibility profile (MRSA strain 45) was “S”. The Drug sensibility profile (MRSA strain 46) was “S”, the Drug sensibility profile (MRSA strain 48) was “R” and the Drug sensibility profile (MRSA strain 49) was “S”. For the same compound, the Drug sensibility profile (MRSA strain 50) was “R” and the Drug sensibility profile (MRSA strain 51) was “S”.

For `CCCCCCCCCCNCCN[C@@]1(C)C[C@H](O[C@H]2[C@H](Oc3c4cc5cc3Oc3ccc(cc3Cl)[C@@H](O)[C@@H](NC(=O)[C@@H](CC(C)C)NC)C(=O)N[C@@H](CC(N)=O)C(=O)N[C@H]5C(=O)N[C@H]3C(=O)N[C@H](C(=O)N[C@H](C(=O)O)c5cc(O)c(CNCP(=O)(O)O)c(O)c5-c5cc3ccc5O)[C@H](O)c3ccc(c(Cl)c3)O4)O[C@H](CO)[C@@H](O)[C@@H]2O)O[C@@H](C)[C@H]1O` [Telavancin], the Drug sensibility profile (MRSA strain 25) was “S”, the Drug sensibility profile (MRSA strain 26) was “S” and the Drug sensibility profile (MRSA strain 27) was “S”. The Drug sensibility profile (MRSA strain 28) was “S”, the Drug sensibility profile (MRSA strain 29) was “S” and the Drug sensibility profile (MRSA strain 36) was “S”. For the same compound, the Drug sensibility profile (MRSA strain 41) was “S”, the Drug sensibility profile (MRSA strain 42) was “S” and the Drug sensibility profile (MRSA strain 44) was “S”. The Drug sensibility profile (MRSA strain 45) was “S” and the Drug sensibility profile (MRSA strain 51) was “S”.
